From PubChem BioAssay AID330 (DTP/NCI, 2004)
Values joined by “and” are separate entries in the source; they are usually repeats but may differ in a detail not shown here. Identical values can stand only once. Inconclusive results and toxic doses are left out.

Tested on: P388 leukemia ip, CD2F1 mice, survival T/C
Assay: NCI In Vivo Anticancer Drug Screen. Data for tumor model P388 Leukemia (intraperitoneal) in CD2F1 (CDF1) mice
Conditions: endpoint: median survival time, higher = longer survival
Summary of the method: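 Mice carrying the transplanted tumor received test compound or vehicle. Survival was recorded in each group, and the value is the treated-group measurement divided by that of the vehicle-treated control group.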

[1] = dose: 50.0 mg/kg/injection, schedule: Q01DX005 (ip), vehicle: saline with Tween-80
[2] = dose: 100.0 mg/kg/injection, schedule: Q01DX005 (ip), vehicle: saline with Tween-80
[3] = dose: 50.0 mg/kg/injection, schedule: Q01DX005 (ip), vehicle: Klucel (hydroxypropylcellulose) (HPC)
[4] = dose: 100.0 mg/kg/injection, schedule: Q01DX005 (ip), vehicle: Klucel (hydroxypropylcellulose) (HPC)
[5] = dose: 200.0 mg/kg/injection, schedule: Q01DX005 (ip), vehicle: saline with Tween-80
[6] = dose: 50.0 mg/kg/injection, schedule: Q01DX009 (ip), vehicle: saline with Tween-80
[7] = dose: 100.0 mg/kg/injection, schedule: Q01DX009 (ip), vehicle: saline with Tween-80
[8] = dose: 200.0 mg/kg/injection, schedule: Q01DX009 (ip), vehicle: saline with Tween-80
[9] = dose: 60.0 mg/kg/injection, schedule: Q01DX005 (ip), vehicle: Klucel (hydroxypropylcellulose) (HPC)
[10] = dose: 120.0 mg/kg/injection, schedule: Q01DX005 (ip), vehicle: Klucel (hydroxypropylcellulose) (HPC)
[11] = dose: 50.0 mg/kg/injection, schedule: Q01DX009 (ip), vehicle: Klucel (hydroxypropylcellulose) (HPC)
[12] = dose: 100.0 mg/kg/injection, schedule: Q01DX009 (ip), vehicle: Klucel (hydroxypropylcellulose) (HPC)
[13] = dose: 200.0 mg/kg/injection, schedule: Q01DX009 (ip), vehicle: Klucel (hydroxypropylcellulose) (HPC)
[14] = dose: 240.0 mg/kg/injection, schedule: Q01DX005 (ip), vehicle: Klucel (hydroxypropylcellulose) (HPC)
[15] = dose: 50.0 mg/kg/injection, schedule: Q01DX009 (ip), vehicle: saline
[16] = dose: 100.0 mg/kg/injection, schedule: Q01DX009 (ip), vehicle: saline
[17] = dose: 200.0 mg/kg/injection, schedule: Q01DX009 (ip), vehicle: saline

In the case of `O=c1c(F)cn(C(c2ccccc2)c2ccccc2)c(=O)n1C(c1ccccc1)c1ccccc1`, the T/C (dose: 12.5 mg/kg/injection, schedule: Q01DX009 (ip), vehicle: suspension in saline) is reported as 101 % of control, the T/C (dose: 18.75 mg/kg/injection, schedule: Q01DX009 (ip), vehicle: suspension in saline) is reported as 115 % of control and the T/C (dose: 25.0 mg/kg/injection, schedule: Q01DX009 (ip), vehicle: suspension in saline) is reported as 106 % of control. The T/C (dose: 37.5 mg/kg/injection, schedule: Q01DX009 (ip), vehicle: suspension in saline) was 97 % of control, the T/C (dose: 50.0 mg/kg/injection, schedule: Q01DX009 (ip), vehicle: suspension in saline) was 100 % of control and the T/C (dose: 75.0 mg/kg/injection, schedule: Q01DX009 (ip), vehicle: suspension in saline) was 101 % of control and 115 % of control. The T/C (dose: 150.0 mg/kg/injection, schedule: Q01DX009 (ip), vehicle: suspension in saline) was 97 % of control.
With `CCN(CC)CCN(Cc1ccccc1)C(=O)C1c2ccccc2Oc2ccccc21` the T/C [1] was 102 % of control and the T/C [2] was 105 % of control.
`O=C(/C(O)=C(\O)C(=O)N(C1CCCCC1)C1CCCCC1)N(C1CCCCC1)C1CCCCC1` was tested, and the T/C (dose: 25.0 mg/kg/injection, schedule: Q01DX005 (ip), vehicle: Klucel (hydroxypropylcellulose) (HPC)) was 100 % of control, the T/C [3] was 96 % of control and the T/C [4] was 100 % of control. The T/C (dose: 200.0 mg/kg/injection, schedule: Q01DX005 (ip), vehicle: Klucel (hydroxypropylcellulose) (HPC)) was 92 % of control.
In the case of `O=C1C=C(O)C2CCCCC2N1` (stereo not given), the T/C [3] is reported as 99 % of control and the T/C [4] is reported as 95 % of control.
For `CC(C)(C(=O)O)c1csc(-c2ccc(Cl)cc2)n1`, the T/C [1] was 98 % of control, the T/C [2] was 102 % of control and the T/C [5] was 93 % of control.
For `Brc1cc2ccccc2c2ccccc12`, the T/C [6] was 99 % of control, the T/C [7] was 99 % of control and the T/C [8] was 93 % of control. For the same molecule, the T/C (dose: 400.0 mg/kg/injection, schedule: Q01DX009 (ip), vehicle: saline with Tween-80) was 93 % of control.
In the case of `O=C(O)c1c(Cl)c(Cl)c(Cl)c(Cl)c1C(=O)Nc1ccc2cn[nH]c2c1`, the T/C (dose: 50.0 mg/kg/injection, schedule: Q01DX009 (ip), vehicle: saline + alcohol) is reported as 101 % of control and the T/C (dose: 100.0 mg/kg/injection, schedule: Q01DX009 (ip), vehicle: saline + alcohol) is reported as 100 % of control.
In the case of `N=C(N)c1ccc(N=Nc2ccc(N)cc2N)cc1`, the T/C [9] is reported as 120 % of control and the T/C [10] is reported as 124 % of control.
For `CCCCC(NC(=O)C(C)N)C(=O)O` (stereo not given), the T/C [11] was 98 % of control, the T/C [12] was 98 % of control and the T/C [13] was 95 % of control. The T/C (dose: 400.0 mg/kg/injection, schedule: Q01DX009 (ip), vehicle: Klucel (hydroxypropylcellulose) (HPC)) was 101 % of control.
For `O=C(O)c1cc(-c2c(Cl)cccc2Cl)nc2cc3ccccc3cc12`, the T/C [11] was 111 % of control, the T/C [12] was 106 % of control and the T/C [13] was 106 % of control.
`COc1ccc(C2OC3=C(Nc4ccc(Cl)cc4N3)C2=O)cc1` (stereo not given) was tested, and the T/C (dose: 30.0 mg/kg/injection, schedule: Q01DX005 (ip), vehicle: Klucel (hydroxypropylcellulose) (HPC)) was 98 % of control, the T/C [9] was 94 % of control and the T/C [10] was 93 % of control and 97 % of control. For the same molecule, the T/C [14] was 98 % of control.
With `Cc1cc(-n2nnc3ccccc3c2=O)on1` the T/C [9] was 114 % of control, the T/C [10] was 101 % of control and the T/C [14] was 119 % of control.
`Cn1c2nc(-[n+]3ccc4ccccc4c3)nc-2c([O-])n(C)c1=O` was tested, and the T/C (dose: 100.0 mg/kg/injection, schedule: Q04DX003 (ip), vehicle: saline) was 100 % of control, the T/C (dose: 200.0 mg/kg/injection, schedule: Q04DX003 (ip), vehicle: saline) was 99 % of control and the T/C (dose: 400.0 mg/kg/injection, schedule: Q04DX003 (ip), vehicle: saline) was 100 % of control.
`CCN1CCC(OC(=O)c2ccccc2)(c2nccc3ccccc23)CC1` was tested, and the T/C [6] was 112 % of control.
For `COc1ccc(C23OCN(c4ccccc4)C2(c2ccc(OC)cc2)c2ccccc2N3C)cc1` (stereo not given), the T/C (dose: 60.0 mg/kg/injection, schedule: Q01DX005 (ip), vehicle: saline with Tween-80) was 103 % of control, the T/C (dose: 120.0 mg/kg/injection, schedule: Q01DX005 (ip), vehicle: saline with Tween-80) was 100 % of control and the T/C (dose: 240.0 mg/kg/injection, schedule: Q01DX005 (ip), vehicle: saline with Tween-80) was 94 % of control.
For `C=C1CC[N+]2(CCCC)CCCC12` (stereo not given), the T/C (dose: 7.5 mg/kg/injection, schedule: Q01DX005 (ip), vehicle: saline) was 104 % of control, the T/C (dose: 15.0 mg/kg/injection, schedule: Q01DX005 (ip), vehicle: saline) was 98 % of control and the T/C (dose: 30.0 mg/kg/injection, schedule: Q01DX005 (ip), vehicle: saline) was 100 % of control.
`COC1/C=C\OC2(C)Oc3c(C)c(O)c4c(O)c(c5c(c4c3C2=O)NC2(CCN(Cc3ccccc3)CC2)N=5)=NC(=O)/C(C)=C\C=C\C(C)C(O)C(C)C(O)C(C)C(OC(C)=O)C1C` (stereo not given) was tested, and the T/C (dose: 25.0 mg/kg/injection, schedule: Q01DX009 (ip), vehicle: Klucel (hydroxypropylcellulose) (HPC)) was 102 % of control, the T/C [11] was 107 % of control and the T/C [12] was 111 % of control. The T/C [13] was 103 % of control.
For `O=C(CC1=NC2NN(c3ccccc3)C(=O)C2=C1CC(=O)C(c1ccccc1)c1ccccc1)C(c1ccccc1)c1ccccc1` (stereo not given), the T/C (dose: 60.0 mg/kg/injection, schedule: Q01DX005 (ip), vehicle: suspension in saline) was 98 % of control, the T/C (dose: 120.0 mg/kg/injection, schedule: Q01DX005 (ip), vehicle: suspension in saline) was 102 % of control and the T/C (dose: 240.0 mg/kg/injection, schedule: Q01DX005 (ip), vehicle: suspension in saline) was 100 % of control.
`COc1ccc(-c2sc(-c3ccccc3)nc2O)cc1` was tested, and the T/C [6] was 89 % of control, the T/C [7] was 89 % of control and the T/C [8] was 92 % of control.
For `CC1=NN(c2ccccc2)C(=O)C1N=Nc1cc([N+](=O)[O-])cc(S(=O)(=O)O)c1O.CC1=NN(c2ccccc2)C(=O)C1N=Nc1cc([N+](=O)[O-])cc(S(=O)(=O)O)c1O.[Cr]` (stereo not given), the T/C (dose: 25.0 mg/kg/injection, schedule: Q01DX009 (ip), vehicle: saline) was 106 % of control and 108 % of control, the T/C [15] was 111 % of control and 112 % of control and 115 % of control and the T/C [16] was 119 % of control and 124 % of control (2×). For the same molecule, the T/C [17] was 101 % of control and 103 % of control and 115 % of control.
For `Clc1cnc(Oc2ccccc2)c2ccccc12`, the T/C [1] was 104 % of control, the T/C [2] was 103 % of control and the T/C [5] was 88 % of control.
For `NC(=S)c1ccc(C=Nc2ccc(I)cc2)cc1`, the T/C (dose: 25.0 mg/kg/injection, schedule: Q01DX001 (ip), vehicle: Klucel (hydroxypropylcellulose) (HPC)) was 93 % of control, the T/C (dose: 50.0 mg/kg/injection, schedule: Q01DX001 (ip), vehicle: Klucel (hydroxypropylcellulose) (HPC)) was 102 % of control and the T/C (dose: 100.0 mg/kg/injection, schedule: Q01DX001 (ip), vehicle: Klucel (hydroxypropylcellulose) (HPC)) was 100 % of control.
`CCCCCCCCN(c1ccc(C(=O)NC(CCC(=O)OCC)C(=O)OCC)cc1)S(=O)(=O)c1ccc(C)cc1` (stereo not given) was tested, and the T/C (dose: 12.5 mg/kg/injection, schedule: Q04DX003 (ip), vehicle: saline with Tween-80) was 104 % of control, the T/C (dose: 25.0 mg/kg/injection, schedule: Q04DX003 (ip), vehicle: saline with Tween-80) was 100 % of control and the T/C (dose: 50.0 mg/kg/injection, schedule: Q04DX003 (ip), vehicle: saline with Tween-80) was 95 % of control.
For `COCCC1CN(C(C)C)C(=O)C1(c1ccccc1)c1ccccc1` (stereo not given), the T/C [11] was 106 % of control, the T/C [12] was 92 % of control and the T/C [13] was 108 % of control.
In the case of `Cc1ccc(C(=O)CC(O)(C(F)(F)F)C(F)(F)F)cc1`, the T/C (dose: 100.0 mg/kg/injection, schedule: Q04DX003 (ip), vehicle: other) is reported as 100 % of control, the T/C (dose: 200.0 mg/kg/injection, schedule: Q04DX003 (ip), vehicle: other) is reported as 118 % of control and the T/C (dose: 400.0 mg/kg/injection, schedule: Q04DX003 (ip), vehicle: other) is reported as 122 % of control.
In the case of `CCOC1CC(C)(O)C(C(=O)OC)c2cc3c(c(O)c21)C(=O)c1c(O)cc2c(c1C3=O)OC1OC2(C)C(O)C(N(C)C)C1O` (stereo not given), the T/C (dose: 3.16 mg/kg/injection, schedule: Q01DX009 (ip), vehicle: other) is reported as 151 % of control, the T/C (dose: 6.25 mg/kg/injection, schedule: Q01DX009 (ip), vehicle: other) is reported as 161 % of control and the T/C (dose: 12.5 mg/kg/injection, schedule: Q01DX009 (ip), vehicle: other) is reported as 171 % of control.
`[O]=[Ge]([c]1ccccc1)[c]1ccccc1` was tested, and the T/C [15] was 95 % of control, the T/C [16] was 96 % of control and the T/C [17] was 92 % of control.
